According to BindingDB's records for doi:10.1021/acs.jmedchem.5b01148 (Queensland University of Technology, 2015):
Bridge positions count the residues as written; N and C are the ends. Peptide text beside a SMILES is read from it.

Test: Inhibition of matriptase (unknown origin) using Ac-RQFRpNA substrate by spectrophotometry method

Row | Ki | Compound
1 | 546 nM | CC[C@H](C)[C@@H]1NC(=O)[C@@H]2CCCN2C(=O)[C@@H]2CCCN2C(=O)[C@H]([C@@H](C)CC)NC(=O)[C@H](CO)NC(=O)[C@H](CCCNC(=N)N)NC(=O)[C@H]([C@@H](C)O)NC(=O)[C@@H]2CSSC[C@H](NC1=O)C(=O)N[C@@H](Cc1ccccc1)C(=O)N1CCC[C@H]1C(=O)N[C@H](C(=O)O)CC(=O)NCC(=O)N[C@@H](CCCNC(=N)N)C(=O)N2 (GRCTRSIPPICFPD-OH; disulfide 3-11; lactam N-14)
2 | > 50000 nM | CC[C@H](C)[C@@H]1NC(=O)[C@@H]2CCCN2C(=O)[C@@H]2CCCN2C(=O)[C@H](Cc2ccc(O)cc2)NC(=O)[C@H](CO)NC(=O)[C@H](CCCNC(=N)N)NC(=O)[C@H]([C@@H](C)O)NC(=O)[C@@H]2CSSC[C@H](NC1=O)C(=O)N[C@@H](Cc1ccccc1)C(=O)N1CCC[C@H]1C(=O)N[C@H](C(=O)O)CC(=O)NCC(=O)N[C@@H](CCCNC(=N)N)C(=O)N2 (GRCTRSYPPICFPD-OH; disulfide 3-11; lactam N-14)
3 | 87 nM | C[C@@H](O)[C@@H]1NC(=O)[C@@H](NC(=O)[C@H](CCCNC(=N)N)NC(=O)CN)CSSC[C@@H](C(=O)N[C@@H](Cc2cnc[nH]2)C(=O)O)NC(=O)[C@H](CCCNC(=N)N)NC(=O)[C@@H]2CCCN2C(=O)[C@@H]2CCCN2C(=O)[C@H](CC(=O)O)NC(=O)[C@H](CO)NC(=O)[C@H](CCCCN)NC1=O (H-GRCTKSDPPRCH-OH; disulfide 3-11)
4 | 82 nM | CC[C@H](C)[C@@H]1NC(=O)[C@H](CO)NC(=O)[C@H](CCCCN)NC(=O)[C@H]([C@@H](C)O)NC(=O)[C@@H](NC(=O)[C@H](CCCNC(=N)N)NC(=O)CN)CSSC[C@@H](C(=O)N[C@@H](Cc2cnc[nH]2)C(=O)O)NC(=O)[C@H](CCCNC(=N)N)NC(=O)[C@@H]2CCCN2C(=O)[C@@H]2CCCN2C1=O (H-GRCTKSIPPRCH-OH; disulfide 3-11)
